Experimental data from US12371454B2, “Cyclic peptide compound having Kras inhibitory action” (priority 2019, dated 2025).
Starred links: 1 amine or outer side, 2 acyl side, 3 side chain; linkers in the order of their positions; H or OH if unused. Positions of bridges follow the written chain, without caps; N, C: chain ends. Non-standard residues stand in square brackets, D forms with d. Residues, ends and D or L forms follow the SMILES beside them. *: point of attachment. hPhe(3-Cl-4-CF3) = N[C@@H](CCc1ccc(C(F)(F)F)c(Cl)c1)C(=O)O; hPhe(3-F,4-CF3) = N[C@@H](CCc1ccc(C(F)(F)F)c(F)c1)C(=O)O; NMePhe(4-CF3) = CN[C@@H](Cc1ccc(C(F)(F)F)cc1)C(=O)O; NMePhe(4-Cl) = CN[C@@H](Cc1ccc(Cl)cc1)C(=O)O; NMedβ3hAla = C[C@H](CC(=O)[*:2])N(C)[*:1]; NMeGly(cPent) = CN[C@H](C(=O)O)C1CCCC1; Pro(4,4-F2) = O=C(O)[C@@H]1CC(F)(F)CN1; NMeCha = CN[C@@H](CC1CCCCC1)C(=O)O; NMeAhp(2) = CCCCC[C@H](NC)C(=O)O; NMeChg = CN[C@H](C(=O)O)C1CCCCC1; NMeI = CC[C@H](C)[C@H](NC)C(=O)O; NMeD = CN[C@@H](CC(=O)O)C(=O)O; NMeL = CN[C@@H](CC(C)C)C(=O)O; NMeV = CN[C@H](C(=O)O)C(C)C; d(β3hA) = C[C@@H](N)CC(=O)O; Azetidin(1-yl) = C1CN(*)C1; NMeS = CN[C@@H](CO)C(=O)O; Morpholide = C1CN(*)CCO1; NMeA = CN[C@@H](C)C(=O)O; Piperidide = C1CCN(*)CC1; Pyrrolidide = C1CCN(*)C1; Ac5c = NC1(C(=O)O)CCCC1; Aze = O=C(O)[C@@H]1CCN1; Sar = CNCC(=O)O; Propyl = CCC*

These molecules were tested on Human pancreatic cancer cell line AsPC-1 (assay: Measurement of AsPC-1 cell growth inhibition (AsPC-1 CGI)). Details: 96 h.
Assay type: cell-based
Method: Measurement of AsPC-1 Cell Growth Inhibition (AsPC-1 CGI)
Test compounds were serially diluted with dimethyl sulfoxide, and 200 nL was then dispensed to a U-bottom 96-well plate using Labcyte Echo. Human pancreatic cancer cell line AsPC-1 was suspended in RPMI-1640 medium supplemented with 15% fetal bovine serum to prepare a cell suspension at 1000 cells/100 μL. The cell suspension was dispensed to a plate containing a test compound at 100 μL per well and incubated at 37° C. in a 5% carbon dioxide gas incubator. 96 hours later, 80 μL of CellTiter-Glo (Promega) was added to each well and […] was measured.

IC50 | Compound
100 to 500 nM | CC[C@H](C)[C@@H]1NC(=O)[C@H](CC(C)C)N(C)C(=O)C[C@@H](C)NC(=O)[C@H](C(C)C)N(C)C(=O)C2(CCCC2)NC(=O)[C@@H]2CCCN2C(=O)[C@H](CCc2ccc(C(F)(F)F)c(Cl)c2)NC(=O)CN(C)C(=O)[C@H](Cc2ccc(Cl)cc2)N(C)C(=O)[C@@H]2CCN2C(=O)CN(C)C1=O [Compound 207] (cyclo([Ac5c][NMeV][d(β3hA)][NMeL]I[Sar][Aze][NMePhe(4-Cl)][Sar][hPhe(3-Cl-4-CF3)]P))
100 to 500 nM | CC[C@H](C)[C@@H]1NC(=O)[C@H](CC(C)C)N(C)C(=O)C[C@@H](C(=O)N2CCC2)N(C)C(=O)[C@H](C(C)C)N(C)C(=O)C2(CCCC2)NC(=O)[C@@H]2CCCN2C(=O)[C@H](CCc2ccc(C(F)(F)F)c(Cl)c2)NC(=O)CN(C)C(=O)[C@H](CC2CCCCC2)N(C)C(=O)[C@@H]2CCN2C(=O)[C@H](C)N(C)C1=O [Compound 256] ([NMeL]I[NMeA][Aze][NMeCha][Sar][hPhe(3-Cl-4-CF3)]P[Ac5c][NMeV][NMeD]-{Azetidin(1-yl)}; lactam N-11)
20 to 50 nM | CCCCC[C@H]1C(=O)N[C@@H]([C@@H](C)CC)C(=O)N[C@@H](C)C(=O)N2CC[C@H]2C(=O)N(C)[C@@H](CC2CCCCC2)C(=O)N(C)CC(=O)N[C@@H](CCc2ccc(C(F)(F)F)c(Cl)c2)C(=O)N2CCC[C@H]2C(=O)NC2(CCCC2)C(=O)N(C)[C@@H](C2CCCC2)C(=O)N(C)[C@H](C(=O)N2CCOCC2)CC(=O)N1C [Compound 263] ([NMeAhp(2)]IA[Aze][NMeCha][Sar][hPhe(3-Cl-4-CF3)]P[Ac5c][NMeGly(cPent)][NMeD]-Morpholide; lactam N-11)
20 to 50 nM | CC[C@H](C)[C@@H]1NC(=O)[C@H](CC(C)C)N(C)C(=O)C[C@@H](C(=O)N2CCCC2)N(C)C(=O)[C@H]([C@@H](C)CC)N(C)C(=O)C2(CCCC2)NC(=O)[C@@H]2CCCN2C(=O)[C@H](CCc2ccc(C(F)(F)F)c(F)c2)NC(=O)CN(C)C(=O)[C@H](C2CCCC2)N(C)C(=O)[C@@H]2CCN2C(=O)[C@H](C)N(C)C1=O [Compound 313] ([NMeL]I[NMeA][Aze][NMeGly(cPent)][Sar][hPhe(3-F,4-CF3)]P[Ac5c][NMeI][NMeD]-Pyrrolidide; lactam N-11)
100 to 500 nM | CC[C@H](C)[C@@H]1NC(=O)[C@H](CC(C)C)N(C)C(=O)C[C@@H](C)N(C)C(=O)[C@H](C2CCCCC2)N(C)C(=O)C2(CCCC2)NC(=O)[C@@H]2CC(F)(F)CN2C(=O)[C@H](CCc2ccc(C(F)(F)F)c(Cl)c2)NC(=O)CN(C)C(=O)[C@H](Cc2ccc(C(F)(F)F)cc2)N(C)C(=O)[C@@H]2CCN2C(=O)[C@H](C)N(C)C1=O [Compound 319] (cyclo([Ac5c][NMeChg][NMedβ3hAla][NMeL]I[NMeA][Aze][NMePhe(4-CF3)][Sar][hPhe(3-Cl-4-CF3)][Pro(4,4-F2)]))

Compound | IC50
CC[C@H](C)[C@@H]1NC(=O)[C@H](C2CCCC2)N(C)C(=O)C[C@@H](C(=O)N2CCCCC2)N(C)C(=O)[C@H](C(C)C)N(C)C(=O)C2(CCCC2)NC(=O)[C@@H]2CCCN2C(=O)[C@H](CCc2ccc(C(F)(F)F)c(Cl)c2)NC(=O)CN(C)C(=O)[C@H](CC2CCCCC2)N(C)C(=O)[C@@H]2CCN2C(=O)[C@H](C)N(C)C1=O [Compound 225] ([NMeGly(cPent)]I[NMeA][Aze][NMeCha][Sar][hPhe(3-Cl-4-CF3)]P[Ac5c][NMeV][NMeD]-Piperidide; lactam N-11) | 100 to 500 nM
CCCOC[C@H]1C(=O)N(C)CC(=O)N[C@@H](CCc2ccc(C(F)(F)F)c(F)c2)C(=O)N2CCC[C@H]2C(=O)NC2(CCCC2)C(=O)N(C)[C@@H]([C@@H](C)CC)C(=O)N(C)[C@H](C(=O)N2CCCCC2)CC(=O)N(C)[C@@H](CC(C)C)C(=O)N[C@@H]([C@@H](C)CC)C(=O)N(C)[C@@H](C)C(=O)N2CC[C@H]2C(=O)N1C [Compound 236] ([NMeL]I[NMeA][Aze][NMeS](Propyl)[Sar][hPhe(3-F,4-CF3)]P[Ac5c][NMeI][NMeD]-Piperidide; lactam N-11) | 20 to 50 nM
CC[C@H](C)[C@@H]1NC(=O)[C@H](CC(C)C)N(C)C(=O)C[C@@H](C(=O)N2CCCCC2)N(C)C(=O)[C@H](C2CCCCC2)N(C)C(=O)C2(CCCC2)NC(=O)[C@@H]2CCCN2C(=O)[C@H](CCc2ccc(C(F)(F)F)c(Cl)c2)NC(=O)CN(C)C(=O)[C@H](CC2CCCCC2)N(C)C(=O)[C@@H]2CCN2C(=O)[C@H](C)N(C)C1=O [Compound 249] ([NMeL]I[NMeA][Aze][NMeCha][Sar][hPhe(3-Cl-4-CF3)]P[Ac5c][NMeChg][NMeD]-Piperidide; lactam N-11) | 100 to 500 nM
CC[C@H](C)[C@@H]1NC(=O)[C@H](CC(C)C)N(C)C(=O)C[C@@H](C(=O)N2CCCCC2)N(C)C(=O)[C@H](C2CCCCC2)N(C)C(=O)C2(CCCC2)NC(=O)[C@H](C)N(C)C(=O)[C@H](CCc2ccc(C(F)(F)F)c(Cl)c2)NC(=O)CN(C)C(=O)[C@H](CC2CCCCC2)N(C)C(=O)CN(C)C(=O)CN(C)C1=O [Compound 294] ([NMeL]I[Sar][Sar][NMeCha][Sar][hPhe(3-Cl-4-CF3)][NMeA][Ac5c][NMeChg][NMeD]-Piperidide; lactam N-11) | 100 to 500 nM
